pIC50: −log10 of the molar value.
target: T1, tankyrase 1 (Homo sapiens, UniProt O95271); assay: Analysis of activity of tankyrase 1 (Trevigen kit, ELISA absorbance at 450 nm); format: biochemical; settings: Trevigen kit Cat. No. 4700-096-K; reaction at rt for 30 min; read-out: TNKS1 (IC50)
T1 construct: purchased Trevigen 4700-096-K
T1 sequence (O95271 1-1327): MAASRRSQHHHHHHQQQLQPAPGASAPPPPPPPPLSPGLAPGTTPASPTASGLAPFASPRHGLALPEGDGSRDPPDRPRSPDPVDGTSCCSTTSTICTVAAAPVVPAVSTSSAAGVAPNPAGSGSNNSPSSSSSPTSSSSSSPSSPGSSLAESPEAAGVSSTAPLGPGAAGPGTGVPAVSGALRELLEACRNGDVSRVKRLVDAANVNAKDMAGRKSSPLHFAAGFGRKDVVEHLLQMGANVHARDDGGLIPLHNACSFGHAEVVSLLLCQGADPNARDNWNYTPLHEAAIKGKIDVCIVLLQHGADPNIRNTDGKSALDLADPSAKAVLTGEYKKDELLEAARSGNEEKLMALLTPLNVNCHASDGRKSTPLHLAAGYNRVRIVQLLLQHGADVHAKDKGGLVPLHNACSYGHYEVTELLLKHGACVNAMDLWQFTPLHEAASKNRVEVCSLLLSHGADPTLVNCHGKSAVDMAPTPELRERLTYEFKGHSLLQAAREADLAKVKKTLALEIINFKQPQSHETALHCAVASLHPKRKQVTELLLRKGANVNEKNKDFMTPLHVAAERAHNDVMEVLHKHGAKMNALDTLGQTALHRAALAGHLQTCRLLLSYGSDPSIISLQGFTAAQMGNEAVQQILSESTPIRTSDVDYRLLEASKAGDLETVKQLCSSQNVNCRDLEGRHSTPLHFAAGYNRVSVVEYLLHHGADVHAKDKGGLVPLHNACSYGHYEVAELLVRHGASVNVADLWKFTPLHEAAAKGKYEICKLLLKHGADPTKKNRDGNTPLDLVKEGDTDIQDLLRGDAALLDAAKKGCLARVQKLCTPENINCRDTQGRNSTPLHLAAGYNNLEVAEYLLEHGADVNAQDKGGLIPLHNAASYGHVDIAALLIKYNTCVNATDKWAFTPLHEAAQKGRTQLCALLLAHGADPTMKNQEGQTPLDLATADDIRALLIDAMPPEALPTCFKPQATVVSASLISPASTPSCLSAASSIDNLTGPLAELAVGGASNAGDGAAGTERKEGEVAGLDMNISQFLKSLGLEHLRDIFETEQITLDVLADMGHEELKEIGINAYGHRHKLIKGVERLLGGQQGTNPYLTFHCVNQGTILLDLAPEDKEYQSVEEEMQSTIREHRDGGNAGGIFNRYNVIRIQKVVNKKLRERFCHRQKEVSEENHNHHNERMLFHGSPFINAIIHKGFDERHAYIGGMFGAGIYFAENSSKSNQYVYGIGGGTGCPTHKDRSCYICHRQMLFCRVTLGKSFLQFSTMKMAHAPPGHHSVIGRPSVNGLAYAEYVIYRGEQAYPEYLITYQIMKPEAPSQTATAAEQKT
Protocol: Activities of novel compounds synthesized according to Examples 1 to 48 against tankyrase 1 were analyzed using a Trevigen kit (Cat. No. 4700-096-K). Poly PAR histone protein-coated 96-well plate, anti-PAR monoclonal antibody and goat anti-mouse IgG-HRP were used for measurement of absorbance by ELISA method. Specifically, 20× I-PAR assay buffer was diluted to 1× by adding water, and 50 μL of the diluted buffer was added to each well of the 96-well plate followed by reacting at rt for 30 min. Then, the supernatant was completely removed from each well and 10 μL of 1× I-PAR assay buffer and 15 μL of assay substrate were added to each well along with 1 μL of a 50× solution of inhibitors to be tested, which were the compounds obtained in the Examples 1 to 48. 10 m Units/μL of tankyrase 1 enzyme was diluted 50-fold with 1× I-PAR assay buffer and 25 μL of the diluted enzyme was added to each well and reacted while stirring at rt for 30 min. One without any compound of the present invention was used as a positive control and another containing 1× I-PAR assay buffer with the same volume instead of tankyrase 1 enzyme was used as a negative control. Upon completion of the reaction, 200 μL of PBSX, which was prepared by adding 0.1% triton X-100 to PBS, was added and removed and this washing process was repeated twice. Washing was repeated twice more using PBS in the same manner. 5× antibody diluent was diluted with distilled water to 1× concentration, 50 μL of the diluted goat anti-mouse IgG-HRP to 1/2000 was added to each well and reacted while stirring at rt for 30 min. Washes were carried out twice using PBSX and PBS, respectively. After addition of 50 μL of TACS-sapphire to each well of the plate, the plate was blocked from light to react for 10 min to 15 min and the color of the reaction solution turned blue. To stop the reaction, 50 μL of 0.2N HCl was added to turn the solution yellow. Finally, the absorbance of the resulting solution was measured at 450 nm.

| pIC50 | SMILES |
| --- | --- |
| 6.75 | Cc1ncc2c(=O)[nH]c(N3CCN(c4c(F)cc(OCCN5CCN(C)CC5=O)cc4F)CC3)nn12 [compound 33, 2-(4-(2,6-Difluoro-4-(2-(4-methyl-2-oxopiperazin-1-yl)ethoxy)phenyl)piperazin-1-yl)-7-methylimidazo[1,5-f][1,2,4]triazin-4(3H)-one] |
| 7.22 | Cc1ncc2c(=O)[nH]c(N3CCN(c4c(F)cc(OCCN5CCC(N)CC5)cc4F)CC3)nn12 [compound 34, 2-(4-(4-(2-(4-Aminopiperidin-1-yl)ethoxy)-2,6-difluorophenyl)piperazin-1-yl)-7-methylimidazo[1,5-f][1,2,4]triazin-4(3H)-one] |
| 6.99 | Cc1ncc2c(=O)[nH]c(N3CCN(c4c(F)cc(OCCN5CCC(O)C5)cc4F)CC3)nn12 (stereo not shown) [compound 35, 2-(4-(2,6-Difluoro-4-(2-(3-hydroxypyrrolidin-1-yl)ethoxy)phenyl)piperazin-1-yl)-7-methylimidazo[1,5-f][1,2,4]triazin-4(3H)-one] |
| 7.19 | Cc1ncc2c(=O)[nH]c(N3CCN(c4c(F)cc(OCCN5CCC(O)CC5)cc4F)CC3)nn12 [compound 36, 2-(4-(2,6-Difluoro-4-(2-(4-hydroxypiperidin-1-yl)ethoxy)phenyl)piperazin-1-yl)-7-methylimidazo[1,5-f][1,2,4]triazin-4(3H)-one] |
